Measured values as given in US20260124311A1, “POLYMER-DRUG CONJUGATES FOR STING PATHWAY ACTIVATION” (Vanderbilt University, priority 2022, published 2026).
Where two headings read alike, the source gives them in different places.

How the values were obtained:
[1] = test system: E0771 murine breast tumors; assay: Therapeutic efficacy in E0771 murine breast tumor model; details: approximately 0.009 μmol drug/mouse every 4 days, 3 treatments
[2] = E0771 tumor bearing mice, approximately 0.012 μmol diABZI/mouse, organs after 24 hours
STING [3] = target: T1, STING (Homo sapiens, UniProt Q86WV6, G230A/H232R/R293Q/R71H); assay: THP1-Dual reporter assay (IRF-luciferase, Quanti-Luc) for activation of STING; type: cell-based; details: for STING activation / interferon production in THP-1 Dual reporter cells, in words: qualitative comparison of dose-response curves
T1 construct: host or cells: THP1-Dual cells
T1 sequence (Q86WV6 whole entry R71H/G230A/H232R/R293Q): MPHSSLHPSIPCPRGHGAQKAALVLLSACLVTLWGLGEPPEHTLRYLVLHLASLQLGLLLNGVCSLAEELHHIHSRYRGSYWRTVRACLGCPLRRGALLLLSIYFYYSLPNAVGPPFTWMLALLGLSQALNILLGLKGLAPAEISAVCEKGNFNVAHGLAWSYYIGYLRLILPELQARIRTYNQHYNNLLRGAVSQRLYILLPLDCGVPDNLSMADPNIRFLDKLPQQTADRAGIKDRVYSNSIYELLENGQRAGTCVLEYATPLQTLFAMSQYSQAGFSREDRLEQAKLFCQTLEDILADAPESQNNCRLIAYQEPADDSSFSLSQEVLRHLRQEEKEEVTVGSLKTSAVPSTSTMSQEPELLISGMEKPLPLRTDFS
Experimental: Activation of STING. […] Cells were subjected to 10 μg/mL Blasticidin and 100 μg/mL Zeocin for continual selection after every cell passage. […] Reporter cells were seeded at 25,000 cells/well in 100 μL media and treatments were administered in 100 μL of medium.

IRF and NF-kb pathway = assay: THP-1 Dual reporter assay of IRF and NF-kb pathway activation; type: cell-based, human; details: FIG. 19A-B
Experimental: Activation of STING. THP1-Dual cells (InvivoGen) were cultured in Roswell Park Memorial Institute (RPMI) 1640 Medium (Gibco) supplemented with 2 mM L-glutamine, 25 mM HEPES, 10% heat-inactivated fetal bovine serum (HI-FBS; Gibco), 100 U mL^−1, penicillin/100 μg mL^−1, streptomycin (Gibco), and 100 μg/mL Normocin. Cells were subjected to 10 μg/mL Blasticidin and 100 μg/mL Zeocin for continual selection after every cell passage. 96-well plates (REF 655180; Greiner Bio-One) were used for screening agonist activity. Reporter cells were seeded at 25,000 cells/well in 100 μL media and treatments were administered in 100 μL of medium. Results were collected 24 hours after treatment using a Quanti-Luc™ (InvivoGen) assay on cell supernatants following manufacturer's instructions. Luminescence was quantified using a plate reader (Synergy H1 Multi-Mode Microplate Reader; Biotek) after supernatants were transferred to opaque-bottom 96-well plates (REF 655073; Greiner Bio-One).

[4] = test system: STING knockout THP1 Dual cell line; assay: STING knockout THP1 Dual cell line reporter assay; type: cell-based, human; details: FIG. 19C-D
[5] = target: T2, recombinant human STING (hSTING; STING isoform 1) (Homo sapiens, UniProt Q86WV6); assay: Isothermal calorimetry (ITC) binding to recombinant human STING
T2 construct: made in house; host or cells: Escherichia coli (New England Biolabs, T7 Shuffle Express line)
T2 sequence (Q86WV6 whole entry H232R, canonical isoform): as the sequence (Q86WV6 whole entry R71H/G230A/H232R/R293Q) above, with H71R, A230G, Q293R counted along it
Experimental: hSTING Binding Studies. […] Buffer exchange was performed prior to ITC (pH 7.5: PBST, 150 mM NaCl, 3 mM EDTA, 0.05% Tween 20), using Amicon Ultra 4 mL centrifugal filters (Millipore, Etobicoke, Canada). ITC experiments were performed on a TA Instruments Affinity ITC instrument. 24 total injections were performed using the following instrument settings: cell temperature 25° C., reference power 10 μCal/second, initial delay 240 seconds, stirring speed 75 rpm, feedback mode/gain high, and injection volume 2 μL for 10 seconds spaced at 120 second intervals with a filter period of 10 seconds. hSTING was set in the cell at a concentration of 10 μM and a volume of 350 μL. […] Data were analyzed using TA Instruments NanoAnalyze Software.

STING [6] = target: T3, STING (Mus musculus, UniProt Q3TBT3); assay: Interferon-β sandwich ELISA on isolated primary murine splenocytes; type: cell-based
T3 construct: from tissue; host or cells: primary splenocytes from spleens of female C57BL/6 mice
T3 sequence (Q3TBT3 1-378): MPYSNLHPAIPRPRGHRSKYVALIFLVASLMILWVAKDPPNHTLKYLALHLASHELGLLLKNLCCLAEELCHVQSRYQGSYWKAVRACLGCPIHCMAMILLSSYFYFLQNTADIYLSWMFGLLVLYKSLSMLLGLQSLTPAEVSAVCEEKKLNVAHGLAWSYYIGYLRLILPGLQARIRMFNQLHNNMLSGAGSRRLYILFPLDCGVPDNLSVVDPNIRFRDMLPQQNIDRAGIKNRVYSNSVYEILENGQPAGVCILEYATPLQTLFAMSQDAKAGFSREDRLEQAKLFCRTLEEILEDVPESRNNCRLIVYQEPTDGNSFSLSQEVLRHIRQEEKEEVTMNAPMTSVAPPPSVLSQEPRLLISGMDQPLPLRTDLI
Experimental: The activity in primary murine splenocytes, which comprises a mixture of different immune cell populations, using ELISA was used to quantify secreted interferon-β (IFN-β), a signature cytokine of STING pathway activity.
Secretion of Interferon-β (IFN-β) ELISA. […] Cells were centrifuged and resuspended in fresh media at a concentration of 3 million cells per mL. Cells were seeded in a 96-well round bottom plate at 100 μL per well and treatments were administered in 100 μL of medium.

[7] = target: T4, Recombinant Mouse Cathepsin B (Mus musculus, UniProt P10605); assay: Cathepsin-B release / enzyme cleavability assay with MALDI-MS; type: biochemical; details: 50 μM substrate, 0.2 μM cathepsin B
T4 construct: purchased RND Systems
T4 sequence (P10605 80-333 limits assumed): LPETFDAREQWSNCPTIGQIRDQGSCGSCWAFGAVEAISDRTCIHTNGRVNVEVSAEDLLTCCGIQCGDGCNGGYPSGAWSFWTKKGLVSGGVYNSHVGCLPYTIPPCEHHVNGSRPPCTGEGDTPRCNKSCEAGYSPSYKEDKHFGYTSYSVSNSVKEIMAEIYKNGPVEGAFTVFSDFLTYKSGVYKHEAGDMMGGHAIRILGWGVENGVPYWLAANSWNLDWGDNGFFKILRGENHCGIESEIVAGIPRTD
Experimental: Enzyme Cleavability Studies. Recombinant Mouse Cathepsin B (RND Systems) was prepared at 50 μM in MES buffer (pH 5.0) upon opening and kept in −80° C. conditions when not in use. To activate the enzyme, Cathepsin B was diluted to 0.2 μM in MES buffer (pH 5.0) containing 1 mM EDTA and 2 mM DTT and placed at 37° C. for 15 minutes. After activation, Cathepsin B was combined with 50 μM of substrate at 37° C. for 37 hours at a total volume of 100 μL. Activity was determined by observing molecular weight shifts in the substrate using matrix assisted laser desorption and ionization mass spectrometry (MALDI-MS). 4 μL of Matrix (20 mg mL^−1 THAP and 20 mg mL^−1 CHCA in dry acetone) was combined with 1 μL of sample from the Cathepsin B activity assay and spotted on a stainless steel MALDI-MS plate (Bruker). After evaporation of matrix, three technical replicates were collected for each spot using FlexControl software (Bruker Daltonics) on a Bruker AutoFlex MALDI-TOF. The laser pulse rate was 1000 Hz and spectra were obtained with a mass window of 600-5000 m/z at high resolution (4.00 GS/s). FlexAnalysis software (Bruker Daltonics) was used to perform unbiased smoothing and obtain baseline spectra for all samples. Spectra were exported to Microsoft Excel and spectra were plotted using MATLAB.

B16.F10 melanoma = details: intravenous, every 3 days, 3 treatments, 0.035 umol diABZI/mouse
Experimental: Tumor volume was measured until day 18 when the first tumor reached 1500 mm^3 (FIG. 9E).

THP-1 Dual cells = assay: Cellular uptake by flow cytometry at 37° C. and 4° C.; type: cell-based, human; details: FIG. 22A-B
Text: To confirm the dependence of cellular uptake on endocytosis, a RAFT polymerization was used to synthesize a fluorescent version of 50 kDa DMA-diABZI (36) in which a small amount of azide propyl methacrylamide (2%) was co-polymerized to allow for covalent conjugation to DBCO-Sulfo-Cy5 dye, yielding compound (37), which had 2 Sulfo-Cy5 molecules per chain. […] Therefore, DMA-diABZI appears to cells via endocytosis where it can activate STING signaling within ˜2 hr.

[8] = FIG. 5, IRF signaling at 24 hours, read-out: EC50, STING activation in THP-1 Dual reporter cell lines
[9] = Table 2, FIG. 18A, IRF signaling in THP-1 Dual reporter cells, read-out: EC50 value
[10] = FIG. 3B, 24 hours, read-out: EC50, IFN-β production in primary murine splenocytes (ELISA)
[11] = FIG. 3A, 24 hours, read-out: estimated EC50, IRF signaling in THP1-Dual reporter cells

Compound: 25 kDa-poly(dimethylacrylamide-co-azidethylmethacrylate)-graft-diamidobenzimidazole) [25 kDa DMA-g-V/C-diABZI (28)]
- survival [1]: longer than the control and non-polymer conjugated compound
- treated mice with complete tumor regression [1]: approximately 20%
- organ accumulation (biodistribution) [2]: accumulation in the kidney, tumor, and liver

Compound: 100 kDa-poly(dimethylacrylamide-co-azidethylmethacrylate)-graft-diamidobenzimidazole) [100 kDa DMA-g-V/C-diABZI (29)]
- survival [1]: longer than the control and non-polymer conjugated compound
- treated mice with complete tumor regression [1]: ~37.5%
- organ accumulation (biodistribution) [2]: accumulation mainly in the liver and tumor

Compound: C#CCOC(=O)Nc1ccc(COC(=O)NCCCOc2cc(C(N)=O)cc3nc(NC(=O)c4cc(C)nn4CC)n(C/C=C/Cn4c(NC(=O)c5cc(C)nn5CC)nc5cc(C(N)=O)cc(OC)c54)c23)cc1 [Alkyne-PAB-diABZI (4), Alkyne-PAB-diABZI]
- STING activation / interferon production in THP-1 Dual reporter cells, in words (STING [3]): decrease in STING activation

Compound: CCn1nc(C)cc1C(=O)Nc1nc2cc(C(N)=O)cc(OC)c2n1C/C=C/Cn1c(NC(=O)c2cc(C)nn2CC)nc2cc(C(N)=O)cc(OCCCNC(=O)CCCCC(=O)N3Cc4ccccc4C#Cc4ccccc43)c21 [diABZI-DBCO (8), diABZI-DBCO]
- STING activation / interferon production in THP-1 Dual reporter cells, in words (STING [3]): elicit STING activation

Compound: CCSC(=S)SC(C)(C#N)CCC(=O)NCCCOc1cc(C(N)=O)cc2nc(NC(=O)c3cc(C)nn3CC)n(C/C=C/Cn3c(NC(=O)c4cc(C)nn4CC)nc4cc(C(N)=O)cc(OC)c43)c12 (centres unmarked) [diABZI-ECT (10), diABZI-ECT]
- IRF and NF-kb pathway activation (IRF and NF-kb pathway): both signaling pathways are engaged
- IRF and NF-κβ responses in STING knockout cells [4]: lack of activity
- EC50 (STING [3]; [8]): 0.00306 µM
- EC50 (STING [3]; [9]): 0.00721 µM
- STING activation / interferon production in THP-1 Dual reporter cells, in words (STING [3]): significantly more potent than diABZI-amine (1)
- STING activation / interferon production in THP-1 Dual reporter cells, in words (STING [3]; listed as 10): nearly identical STING activation

Compound: CCn1nc(C)cc1C(=O)Nc1nc2cc(C(N)=O)cc(OC)c2n1C/C=C/Cn1c(NC(=O)c2cc(C)nn2CC)nc2cc(C(N)=O)cc(OCCCNC(=O)CCCCCN3C(=O)C=CC3=O)c21 [diABZI-Mal (2), diABZI-Mal]
- Kd [5]: 0.89 ± 0.547 µM
- EC50 (STING [6]; [10]): ~0.00362 µM
- EC50 (STING [3]; [11]): 0.0205 µM
- cathepsin B cleavage (molecular weight shift by MALDI-MS) [7]: no change in molecular weight

Compound: CCSC(=S)SC(C)(C#N)CCC(=O)NCCSSCCC(=O)NCCCOc1cc(C(N)=O)cc2nc(NC(=O)c3cc(C)nn3CC)n(C/C=C/Cn3c(NC(=O)c4cc(C)nn4CC)nc4cc(C(N)=O)cc(OC)c43)c12 (centres unmarked) [diABZI-SS-ECT (11), diABZI-SS-ECT]
- EC50 (STING [3]; [8]): 0.00409 µM
- STING activation / interferon production in THP-1 Dual reporter cells, in words (STING [3]): significantly more potent than diABZI-amine (1)

Compound: CCn1nc(C)cc1C(=O)Nc1nc2cc(C(N)=O)cc(OC)c2n1C/C=C/Cn1c(NC(=O)c2cc(C)nn2CC)nc2cc(C(N)=O)cc(OCCCNC(=O)OCc3ccc(NC(=O)[C@H](CCCNC(N)=O)NC(=O)[C@@H](NC(=O)CCCCC(=O)N4Cc5ccccc5C#Cc5ccccc54)C(C)C)cc3)c21 [diABZI-V/C-DBCO (9), diABZI-V/C-DBCO]
- STING activation / interferon production in THP-1 Dual reporter cells, in words (STING [3]): elicit STING activation

Compound: CCn1nc(C)cc1C(=O)Nc1nc2cc(C(N)=O)cc(OC)c2n1C/C=C/Cn1c(NC(=O)c2cc(C)nn2CC)nc2cc(C(N)=O)cc(OCCCNC(=O)OCc3ccc(NC(=O)[C@H](CCCNC(N)=O)NC(=O)[C@@H](NC(=O)CCCCCN4C(=O)C=CC4=O)C(C)C)cc3)c21 [diABZI-V/C-Mal (3), diABZI-V/C-Mal]
- Kd [5]: 0.207 ± 0.15 µM
- EC50 (STING [6]; [10]): ~0.00338 µM
- EC50 (STING [3]; [11]): 0.314 µM
- cathepsin B cleavage (molecular weight shift by MALDI-MS) [7]: shift in molecular weight from 1400.8 Da to 801.83 Da

Compound: CCn1nc(C)cc1C(=O)Nc1nc2cc(C(N)=O)cc(OC)c2n1C/C=C/Cn1c(NC(=O)c2cc(C)nn2CC)nc2cc(C(N)=O)cc(OCCCN)c21 [diABZI-amine (1), (E)-7-(3-aminopropoxy)-1-(4-(5-carbamoyl-2-(1-ethyl-3-methyl-1H-pyrazole-5-carboxamido)-7-methoxy-1H-benzo[d]imidazol-1-yl)but-2-en-1-yl)-2-(1-ethyl-3-methyl-1H-pyrazole-5-carboxamido)-1H-benzo[d]imidazole-5-carboxamide]
- tumor growth inhibition (B16.F10 melanoma): inhibited tumor growth to a comparable degree
- Kd [5]: 0.07 ± 0.062 µM
- EC50 (STING [6]): ~0.00224 µM
- EC50 (STING [3]; [11]): 0.0609 µM
- EC50 (STING [3]; [9]): 0.0786 µM

Compound: C=C(C)C(=O)OCCSSCCC(=O)NCCCOc1cc(C(N)=O)cc2nc(NC(=O)c3cc(C)nn3CC)n(C/C=C/Cn3c(NC(=O)c4cc(C)nn4CC)nc4cc(C(N)=O)cc(OC)c43)c12 [diABZI-disulfide-methacrylate (15), diABZI-disulfide-methacrylate]
- STING activation / interferon production in THP-1 Dual reporter cells, in words (STING [3]): nearly identical STING activation

Compound: C=C(C)C(=O)OCCCCCC(=O)NCCCOc1cc(C(N)=O)cc2nc(NC(=O)c3cc(C)nn3CC)n(C/C=C/Cn3c(NC(=O)c4cc(C)nn4CC)nc4cc(C(N)=O)cc(OC)c43)c12 [diABZI-methacrylate (14), diABZI-methacrylate]
- STING activation / interferon production in THP-1 Dual reporter cells, in words (STING [3]): nearly identical STING activation

Compound: diABZI(CTA)-SS-poly-DMA (50k) [50 kDa diABZI-SS-DMA (35)]
- STING activation / interferon production in THP-1 Dual reporter cells, in words (STING [3]): activated STING in a similar range as the stably linked constructs

Compound: diABZI-5k PEG [diABZI-5k PEG (17)]
- STING activation / interferon production in THP-1 Dual reporter cells, in words (STING [3]): slightly higher activity

Compound: diABZI-20k PEG [diABZI-20k PEG (18)]
- tumor growth inhibition (B16.F10 melanoma): inhibited tumor growth to a comparable degree
- STING activation / interferon production in THP-1 Dual reporter cells, in words (STING [3]): slightly higher activity

Compound: diABZI-DMA-co-AzPMA-Sulfo-Cy5 [sCy5-labeled DMA-diABZI (37)]
- cellular uptake at 4° C. versus 37° C. (THP-1 Dual cells): nearly completely abrogated

Compound: diABZI-V/C-2k PEG [diABZI-V/C-2k PEG (19)]
- STING activation / interferon production in THP-1 Dual reporter cells, in words (STING [3]): active

Compound: diABZI-V/C-5k PEG [diABZI-V/C-5k PEG (20)]
- STING activation / interferon production in THP-1 Dual reporter cells, in words (STING [3]): active

Compound: diABZI-V/C-20k PEG [diABZI-V/C-20k PEG (21)]
- tumor growth inhibition (B16.F10 melanoma): inhibited tumor growth to a comparable degree
- STING activation / interferon production in THP-1 Dual reporter cells, in words (STING [3]): active
